Measurements reported in ChEMBL document CHEMBL1201862, “PubChem BioAssay data set” (2004).
“And” between values parts separate entries of the source, which are not always exact repeats. Equal values may be shown once.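 Following 48 hours of exposure in 96-well plates, responses at five concentrations were used to interpolate endpoints linearly. GI50 is the concentration that inhibits growth by half.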 The source made the active and inactive calls. Cut-off read from the data, not from the text of the source: active = GI50 up to about 1.1 µM and inactive = higher.

Key:
Assay in all cases: inhibition of tumour cell growth, NCI panel, 48 h
KM12 = test system: KM12
SNB-19 = test system: SNB-19
OVCAR-8 = test system: OVCAR-8
MDA-MB-435 = test system: MDA-MB-435
UACC-62 = test system: UACC-62
MOLT-4 = test system: MOLT-4
OVCAR-4 = test system: OVCAR-4
NCI-H522 = test system: NCI-H522
NCI-H23 = test system: NCI-H23
Hs-578T = test system: Hs-578T
SK-MEL-5 = test system: SK-MEL-5
PC-3 = test system: PC-3
NCI-H226 = test system: NCI-H226
COLO 205 = test system: COLO 205
HOP-92 = test system: HOP-92
HCC 2998 = test system: HCC 2998
Malme-3M = test system: Malme-3M
A498 = test system: A498
HOP-62 = test system: HOP-62
SF-539 = test system: SF-539
SW-620 = test system: SW-620
NCI/ADR-RES = test system: NCI/ADR-RES
UO-31 = test system: UO-31
HCT-15 = test system: HCT-15
DU-145 = test system: DU-145
EKVX = test system: EKVX
IGROV-1 = test system: IGROV-1
SN12C = test system: SN12C
HT-29 = test system: HT-29
M14 = test system: M14
786-0 = test system: 786-0
MDA-MB-231 = test system: MDA-MB-231
SK-MEL-28 = test system: SK-MEL-28
SK-MEL-2 = test system: SK-MEL-2
TK-10 = test system: TK-10
A549 = test system: A549
U-251 = test system: U-251
OVCAR-3 = test system: OVCAR-3
T47D = test system: T47D
UACC-257 = test system: UACC-257
ACHN = test system: ACHN
HL-60 = test system: HL-60
NCI-H460 = test system: NCI-H460
RXF 393 = test system: RXF 393
SK-OV-3 = test system: SK-OV-3
SF-295 = test system: SF-295
SF-268 = test system: SF-268
SNB-75 = test system: SNB-75
RPMI-8226 = test system: RPMI-8226
MDA-N = test system: MDA-N
MCF7 = test system: MCF7
LOX IMVI = test system: LOX IMVI
K562 = test system: K562
SR = test system: SR
CCRF-CEM = test system: CCRF-CEM
OVCAR-5 = test system: OVCAR-5
HCT-116 = test system: HCT-116
CAKI-1 = test system: CAKI-1

`COc1ccccc1/C=C(/C)[N+](=O)[O-]` was tested, and the GI50 (KM12) was 2.96 µM (inactive) and 1.74 µM (inactive), the GI50 (SNB-19) was 4.26 µM (inactive) and 2.33 µM (inactive) and the GI50 (OVCAR-8) was 1.79 µM (inactive) and 2.12 µM (inactive). For the same molecule, the GI50 (MDA-MB-435) was 3.15 µM (inactive) and 1.93 µM (inactive), the GI50 (UACC-62) was 1.89 µM (inactive) and 1.58 µM (inactive) and the GI50 (MOLT-4) was 269 nM (active) and 255 nM (active). For the same molecule, the GI50 (OVCAR-4) was 5.94 µM (inactive) and 3.86 µM (inactive), the GI50 (NCI-H522) was 1.39 µM (inactive) and 1.19 µM (inactive) and the GI50 (NCI-H23) was 2.15 µM (inactive) and 2.2 µM (inactive). The GI50 (Hs-578T) was 4.55 µM (inactive) and 4.24 µM (inactive), the GI50 (SK-MEL-5) was 2.07 µM (inactive) and 1.85 µM (inactive) and the GI50 (PC-3) was 2.79 µM (inactive) and 2.53 µM (inactive). For the same molecule, the GI50 (NCI-H226) was 2.02 µM (inactive) and 2.34 µM (inactive), the GI50 (COLO 205) was 3.05 µM (inactive) and 1.83 µM (inactive) and the GI50 (HOP-92) was 2.21 µM (inactive). For the same molecule, the GI50 (HCC 2998) was 1.48 µM (inactive) and 3.94 µM (inactive), the GI50 (Malme-3M) was 2.51 µM (inactive) and 1.85 µM (inactive) and the GI50 (A498) was 7.13 µM (inactive) and 5.14 µM (inactive). The GI50 (HOP-62) was 1.81 µM (inactive) and 3.37 µM (inactive), the GI50 (SF-539) was 1.77 µM (inactive) and 2.28 µM (inactive) and the GI50 (SW-620) was 2.43 µM (inactive) and 2.02 µM (inactive). The GI50 (NCI/ADR-RES) was 3.44 µM (inactive) and 2.65 µM (inactive), the GI50 (UO-31) was 1.69 µM (inactive) and 1.72 µM (inactive) and the GI50 (HCT-15) was 1.96 µM and 2.01 µM. For the same molecule, the GI50 (DU-145) was 1.02 µM (active) and 1.04 µM (active), the GI50 (EKVX) was 3.21 µM (inactive) and 4.49 µM (inactive) and the GI50 (IGROV-1) was 2.17 µM (inactive) and 1.6 µM (inactive). For the same molecule, the GI50 (SN12C) was 2.24 µM (inactive) and 1.98 µM (inactive), the GI50 (HT-29) was 3.65 µM (inactive) and 3.44 µM (inactive) and the GI50 (M14) was 1.37 µM (inactive) and 1.21 µM (inactive). For the same molecule, the GI50 (786-0) was 1.37 µM (inactive) and 1.13 µM (inactive), the GI50 (MDA-MB-231) was 3.43 µM (inactive) and 4.86 µM (inactive) and the GI50 (SK-MEL-28) was 2.46 µM (inactive) and 2.19 µM (inactive). For the same molecule, the GI50 (SK-MEL-2) was 1.99 µM (inactive) and 2.53 µM (inactive), the GI50 (TK-10) was 2.06 µM (inactive) and 4.06 µM (inactive) and the GI50 (A549) was 2.33 µM (inactive) and 2.98 µM (inactive). The GI50 (U-251) was 1.68 µM (inactive) and 1.79 µM (inactive), the GI50 (OVCAR-3) was 1.32 µM (inactive) and 1.09 µM (active) and the GI50 (T47D) was 1.44 µM (inactive) and 1.04 µM (active). The GI50 (UACC-257) was 1.74 µM (inactive) and 1.77 µM (inactive), the GI50 (ACHN) was 2.17 µM (inactive) and 2.44 µM (inactive) and the GI50 (HL-60) was 1.88 µM (inactive) and 1.21 µM (inactive).
In the case of `COc1cc(C(=O)Oc2c(C#N)sc3c2c(=O)n(-c2ccccc2)c(=S)n3-c2ccccc2)cc(OC)c1OC`, the GI50 (KM12) is reported as 18.9 µM (inactive), the GI50 (SNB-19) is reported as 11.6 µM (inactive) and the GI50 (OVCAR-8) is reported as 10.9 µM (inactive). For the same molecule, the GI50 (MDA-MB-435) was 15.1 µM (inactive), the GI50 (NCI-H460) was 21.9 µM (inactive) and the GI50 (UACC-62) was 24.1 µM (inactive). For the same molecule, the GI50 (MOLT-4) was 16.6 µM (inactive), the GI50 (OVCAR-4) was 26.4 µM (inactive) and the GI50 (NCI-H522) was 361 nM (active). For the same molecule, the GI50 (NCI-H23) was 18.1 µM (inactive), the GI50 (Hs-578T) was 8.26 µM (inactive) and the GI50 (SK-MEL-5) was 17.3 µM (inactive). For the same molecule, the GI50 (PC-3) was 17.1 µM (inactive), the GI50 (NCI-H226) was 4.73 µM (inactive) and the GI50 (COLO 205) was 15.8 µM (inactive). For the same molecule, the GI50 (RXF 393) was 8.99 µM (inactive), the GI50 (SK-OV-3) was 22 µM (inactive) and the GI50 (SF-295) was 4.14 µM (inactive). The GI50 (SF-268) was 14.3 µM (inactive), the GI50 (HOP-92) was 14.6 µM (inactive) and the GI50 (HCC 2998) was 19.6 µM (inactive). The GI50 (Malme-3M) was 9.14 µM (inactive), the GI50 (A498) was 4.1 µM (inactive) and the GI50 (SNB-75) was 14.4 µM (inactive). For the same molecule, the GI50 (HOP-62) was 19.5 µM (inactive), the GI50 (SF-539) was 4.71 µM (inactive) and the GI50 (SW-620) was 24.2 µM (inactive). For the same molecule, the GI50 (NCI/ADR-RES) was 16.6 µM (inactive), the GI50 (HCT-15) was 18.9 µM and the GI50 (RPMI-8226) was 9.08 µM (inactive). For the same molecule, the GI50 (DU-145) was 19.8 µM (inactive), the GI50 (MDA-N) was 20.2 µM (inactive) and the GI50 (EKVX) was 19.3 µM (inactive). The GI50 (IGROV-1) was 19.1 µM (inactive), the GI50 (SN12C) was 13.8 µM (inactive) and the GI50 (MCF7) was 22.9 µM (inactive). The GI50 (LOX IMVI) was 19.9 µM (inactive), the GI50 (HT-29) was 3.4 µM (inactive) and the GI50 (M14) was 12.8 µM (inactive). The GI50 (K562) was 23.5 µM (inactive), the GI50 (786-0) was 15.2 µM (inactive) and the GI50 (MDA-MB-231) was 20.8 µM (inactive). For the same molecule, the GI50 (SK-MEL-28) was 14.2 µM (inactive), the GI50 (TK-10) was 27.7 µM (inactive) and the GI50 (A549) was 21.5 µM (inactive). For the same molecule, the GI50 (U-251) was 12.5 µM (inactive), the GI50 (OVCAR-3) was 22.7 µM (inactive) and the GI50 (SR) was > 100 µM (inactive). The GI50 (T47D) was 25.5 µM (inactive), the GI50 (UACC-257) was 35.2 µM (inactive) and the GI50 (CCRF-CEM) was 4.72 µM (inactive). For the same molecule, the GI50 (OVCAR-5) was 17.6 µM (inactive), the GI50 (ACHN) was 8.87 µM (inactive) and the GI50 (HCT-116) was 16.3 µM (inactive). The GI50 (HL-60) was 18.8 µM (inactive) and the GI50 (CAKI-1) was 21.2 µM (inactive).
In the case of `C=CCC1NCCC2=C1C(S(=O)(=O)c1ccc(C)cc1)c1ccccc12` (centres undefined), the GI50 (KM12) is reported as 9.46 µM (inactive), the GI50 (SNB-19) is reported as 16.5 µM (inactive) and the GI50 (OVCAR-8) is reported as 14.3 µM (inactive). The GI50 (MDA-MB-435) was 5.47 µM (inactive), the GI50 (NCI-H460) was 11.7 µM (inactive) and the GI50 (UACC-62) was 11.7 µM (inactive). For the same molecule, the GI50 (MOLT-4) was 6.56 µM (inactive), the GI50 (OVCAR-4) was 12.1 µM (inactive) and the GI50 (NCI-H522) was 10100 nM (inactive). The GI50 (NCI-H23) was 18 µM (inactive), the GI50 (Hs-578T) was 13.7 µM (inactive) and the GI50 (SK-MEL-5) was 14.3 µM (inactive). For the same molecule, the GI50 (PC-3) was 10.4 µM (inactive), the GI50 (NCI-H226) was 16.8 µM (inactive) and the GI50 (COLO 205) was 2 µM (inactive). The GI50 (RXF 393) was 5.66 µM (inactive), the GI50 (SK-OV-3) was 16.6 µM (inactive) and the GI50 (SF-295) was 13.7 µM (inactive). For the same molecule, the GI50 (SF-268) was 14.9 µM (inactive), the GI50 (HOP-92) was 9.95 µM (inactive) and the GI50 (HCC 2998) was 1.85 µM (inactive). The GI50 (Malme-3M) was 11.2 µM (inactive), the GI50 (A498) was 19 µM (inactive) and the GI50 (SNB-75) was 5.64 µM (inactive). For the same molecule, the GI50 (HOP-62) was 14.5 µM (inactive), the GI50 (SW-620) was 14.2 µM (inactive) and the GI50 (NCI/ADR-RES) was 12.6 µM (inactive). For the same molecule, the GI50 (UO-31) was 7.67 µM (inactive), the GI50 (HCT-15) was 11.9 µM and the GI50 (RPMI-8226) was 5.55 µM (inactive). For the same molecule, the GI50 (DU-145) was 11.9 µM (inactive), the GI50 (MDA-N) was 6.9 µM (inactive) and the GI50 (EKVX) was 18 µM (inactive). For the same molecule, the GI50 (IGROV-1) was 8.11 µM (inactive), the GI50 (SN12C) was 14.4 µM (inactive) and the GI50 (MCF7) was 7.13 µM (inactive). For the same molecule, the GI50 (LOX IMVI) was 8.91 µM (inactive), the GI50 (HT-29) was 16 µM (inactive) and the GI50 (M14) was 11.8 µM (inactive). The GI50 (K562) was 5.62 µM (inactive), the GI50 (786-0) was 12.9 µM (inactive) and the GI50 (MDA-MB-231) was 12.1 µM (inactive). For the same molecule, the GI50 (SK-MEL-28) was 12.4 µM (inactive), the GI50 (SK-MEL-2) was 13.5 µM (inactive) and the GI50 (TK-10) was 16.4 µM (inactive). For the same molecule, the GI50 (A549) was 15.1 µM (inactive), the GI50 (U-251) was 11.5 µM (inactive) and the GI50 (OVCAR-3) was 12.5 µM (inactive). The GI50 (SR) was 3.64 µM (inactive), the GI50 (T47D) was 10.4 µM (inactive) and the GI50 (UACC-257) was 20.2 µM (inactive). For the same molecule, the GI50 (CCRF-CEM) was 7.96 µM (inactive), the GI50 (OVCAR-5) was 18.1 µM (inactive) and the GI50 (ACHN) was 7.16 µM (inactive). The GI50 (HCT-116) was 11.1 µM (inactive) and the GI50 (CAKI-1) was 6.92 µM (inactive).
